Source: patent publication US20220242874A1, “CAMPTOTHECIN DERIVATIVES” (SUN PHARMA ADVANCED RESEARCH COMPANY LIMITED, priority 2019, published 2022)
Where a name gives a salt, the structure may show the parent alone. Read-outs that look alike come from different tables or passages of the source.

Legend:
[1] = Buffer stability (phosphate buffer, 37° C., HPLC); assay type: physicochemical
Procedure: The representative compounds were first dissolved in a minimum quantity of DMSO in a volumetric flask and diluted up to the mark with diluent (water: acetonitrile 30:70). […] After the elapsed time, the buffer samples were diluted 4 times with acetonitrile and injected into an HPLC system. Quantification of representative compounds was done by HPLC.
HPLC method: Chromatographic separation was achieved on a Hypersil BDS C18 (100×4.6 mm, 5 μ) column using 25 mM KH2PO4 buffer (pH 7 with TEA): acetonitrile, 90:10 v/v as mobile phase-A and 25 mM KH2PO4 buffer (pH 7 with TEA): acetonitrile 30:70 v/v as mobile phase-B. The gradient started with initially 5% B to 45% B in 10 mins followed by 80% B in 22 mins and held up to 25 mins and then returned to initial conditions at 26 mins and continued up to 30 mins. The injection volume was kept 10 μL and the flow rate was kept at 1.0 mL/min. The UV-Vis Detector was set at 220 nm, the column oven was set at 37° C. and the sample cooler was set at […]. Total chromatographic runtime was 30 min.

NCI H187 cells = experiment: In-vitro cancer cell growth inhibition assay (MTT); assay type: cell-based; details: Homo sapiens
Procedure: The compounds of the present invention were evaluated for their ability to inhibit the growth of various cell line models of small cell lung cancer (SCLC), colon cancer, pancreatic cancer and triple negative breast cancer (TNBC) in-vitro. Details of the cell lines and their respective complete growth media are described in Table 3. The growth inhibition assay was carried out as described below. Briefly, cells in complete growth media were seeded in 96-well plates at appropriate cell densities (seeding density details described in Table 3) and incubated at 37° C., 5% CO2 (3-4 hours for NCI-H526, NCI-H69, NCI-H187 and overnight for the rest of the cells). Serial dilutions of test compound in DMSO were added to the cells while maintaining the final DMSO concentration of 0.4%-0.5% in the well. […] Subsequently, MTT (final concentration 0.5 mg/mL in media) was incubated with the cells at 37° C., 5% CO2 for 4-5 hours. The formazan crystals were dissolved overnight at 37° C., 5% CO2 using 100 μL extractant (10% SDS in 0.01N HCl) and quantified using absorbance at 570 nm with reference wavelength 630 nm. Growth inhibition was represented as percent decrease in absorbance compared to vehicle treated cells.

NCI H526 cells = experiment: In-vitro cancer cell growth inhibition assay (MTT); assay type: cell-based; details: Homo sapiens, NCI-H526, 96-144 h, read-out: IC50 (nM) NCI H526
Procedure: (§1) The compounds of the present invention were evaluated for their ability to inhibit the growth of various cell line models of small cell lung cancer (SCLC), colon cancer, pancreatic cancer and triple negative breast cancer (TNBC) in-vitro. Details of the cell lines and their respective complete growth media are described in Table 3. The growth inhibition assay was carried out as described below. Briefly, cells in complete growth media were seeded in 96-well plates at appropriate cell densities (seeding density details described in Table 3) and incubated at 37° C., 5% CO2 (3-4 hours for NCI-H526, NCI-H69, NCI-H187 and overnight for the rest of the cells). Serial dilutions of test compound in DMSO were added to the cells while maintaining the final DMSO concentration of 0.4%-0.5% in the well. Plates were incubated for 96-144 h (the exact duration for each assay is described in Table 3) at 37° C., 5% CO2. Subsequently, MTT (final concentration 0.5 mg/mL in media) was incubated with the cells at 37° C., 5% CO2 for 4-5 hours. The formazan crystals were dissolved overnight at 37° C., 5% CO2 using 100 μL extractant (10% SDS in 0.01N HCl) and quantified using absorbance at 570 nm with reference wavelength 630 nm. Growth inhibition was represented as percent decrease in absorbance compared to vehicle treated cells.

PANC-1 cells = experiment: In-vitro cancer cell growth inhibition assay (MTT); assay type: cell-based; details: Homo sapiens, read-out: IC50 (nM) PANC-1
Procedure: as §1

HT-29 cells = experiment: In-vitro cancer cell growth inhibition assay (MTT); assay type: cell-based; details: Homo sapiens, read-out: IC50 (nM) HT-29
Procedure: as §1

NCI H69 cells = experiment: In-vitro cancer cell growth inhibition assay (MTT); assay type: cell-based; details: Homo sapiens, read-out: IC50 (nM) NCI H69
Procedure: as §1

MDA-MB-231 cells = experiment: In-vitro cancer cell growth inhibition assay (MTT); assay type: cell-based; details: Homo sapiens, read-out: IC50 (nM) MDA-MB-231
Procedure: as §1

MX-1 cells = experiment: In-vitro cancer cell growth inhibition assay (MTT); assay type: cell-based; details: Homo sapiens, read-out: IC50 (nM) MX-1
Procedure: as §1

MDA-MB-468 cells = experiment: In-vitro cancer cell growth inhibition assay (MTT); assay type: cell-based; details: Homo sapiens, read-out: IC50 (nM) MDA-MB-468
Procedure: as §1

[2] = NCI-H187, read-out: IC50 (nM) NCI H187

SMILES: CCc1c2c(nc3ccc(O)cc13)-c1cc3c(c(=O)n1C2)COC(=O)[C@@]3(CC)OC(=O)OCCSSCCOC(=O)Nc1ccc(N2CCN(C)CC2)cc1.Cl [Compound I.2, 2-(2-{N-[4-(4-Methylpiperazin-1-yl)phenyl]carbamoyloxy}ethyldisulfanyl)ethyl [(4S)-4,11-diethyl-3,4,12,14-tetrahydro-9-hydroxy-1H-pyrano[3′,4′:6,7]indolizino[1,2-b]quinoline-3,14-(4H,12H)dione-4-yl] carbonate hydrochloride]
- % of Unconverted Compounds of Formula I ([1]; pH 4.7, 0 hr, 200 μg/ml): 100%
- % of Unconverted Compounds of Formula I ([1]; pH 4.7, 2 hr, 200 μg/ml): 97.3%
- % of Unconverted Compounds of Formula I ([1]; pH 4.7, 4 hr, 200 μg/ml): 100%
- % of Unconverted Compounds of Formula I ([1]; pH 4.7, 6 hr, 200 μg/ml): 100%
- % of Unconverted Compounds of Formula I ([1]; pH 4.7, 8 hr, 200 μg/ml): 100%
- % of Unconverted Compounds of Formula I ([1]; pH 6.0, 0 hr, 200 μg/ml): 100%
- % of Unconverted Compounds of Formula I ([1]; pH 6.0, 2 hr, 200 μg/ml): 95.5%
- % of Unconverted Compounds of Formula I ([1]; pH 6.0, 4 hr, 200 μg/ml): 98.5%
- % of Unconverted Compounds of Formula I ([1]; pH 6.0, 6 hr, 200 μg/ml): 100%
- % of Unconverted Compounds of Formula I ([1]; pH 6.0, 8 hr, 200 μg/ml): 100%
- % of Unconverted Compounds of Formula I ([1]; pH 7.4, 0 hr, 200 μg/ml): 100%
- % of Unconverted Compounds of Formula I ([1]; pH 7.4, 2 hr, 200 μg/ml): 90.1%
- % of Unconverted Compounds of Formula I ([1]; pH 7.4, 4 hr, 200 μg/ml): 93.5%
- % of Unconverted Compounds of Formula I ([1]; pH 7.4, 6 hr, 200 μg/ml): 88.7%
- % of Unconverted Compounds of Formula I ([1]; pH 7.4, 8 hr, 200 μg/ml): 91.6%
- IC50 (NCI H187 cells; [2]): 0.27 nM
- IC50 (NCI H526 cells): 1.58 nM
- IC50 (PANC-1 cells; PANC-1, 96 h): 508 nM
- IC50 (HT-29 cells; HT-29, 96 h): 31 nM
- IC50 (NCI H69 cells; NCI-H69, 144 h): 1.3 nM
- IC50 (MDA-MB-231 cells; MDA-MB-231, 96 h): 112 nM
- IC50 (MX-1 cells; MX1, 144 h): 5.9 nM
- IC50 (MDA-MB-468 cells; MDA-MB-468, 96 h): 6.6 nM

SMILES: CCc1c2c(nc3ccc(O)cc13)-c1cc3c(c(=O)n1C2)COC(=O)[C@@]3(CC)OC(=O)OCCSSCCNC(=O)c1ccc(N2CCN(C)CC2)cc1 [Compound I.5, 2-(2-{4-[4-Methylpiperazin-1-yl]benzoylamino}ethyldisulfanyl) ethyl [(4S)-4,11-diethyl-3,4,12,14-tetrahydro-9-hydroxy-1H-pyrano[3′,4′:6,7]indolizino[1,2-b]quinoline-3,14-(4H,12H)dione-4-yl]carbonate dihydrochloride]
- % of Unconverted Compounds of Formula I ([1]; pH 4.7, 0 hr, 100 μg/ml (footnote *)): 100%
- % of Unconverted Compounds of Formula I ([1]; pH 4.7, 2 hr, 100 μg/ml (footnote *)): 82.5%
- % of Unconverted Compounds of Formula I ([1]; pH 4.7, 4 hr, 100 μg/ml (footnote *)): 86.3%
- % of Unconverted Compounds of Formula I ([1]; pH 4.7, 6 hr, 100 μg/ml (footnote *)): 79.9%
- % of Unconverted Compounds of Formula I ([1]; pH 4.7, 8 hr, 100 μg/ml (footnote *)): 77.2%
- % of Unconverted Compounds of Formula I ([1]; pH 6.0, 0 hr, 100 μg/ml (footnote *)): 100%
- % of Unconverted Compounds of Formula I ([1]; pH 6.0, 2 hr, 100 μg/ml (footnote *)): 94.1%
- % of Unconverted Compounds of Formula I ([1]; pH 6.0, 4 hr, 100 μg/ml (footnote *)): 100%
- % of Unconverted Compounds of Formula I ([1]; pH 6.0, 6 hr, 100 μg/ml (footnote *)): 100%
- % of Unconverted Compounds of Formula I ([1]; pH 6.0, 8 hr, 100 μg/ml (footnote *)): 98.4%
- % of Unconverted Compounds of Formula I ([1]; pH 7.4, 0 hr, 100 μg/ml (footnote *)): 100%
- % of Unconverted Compounds of Formula I ([1]; pH 7.4, 2 hr, 100 μg/ml (footnote *)): 88.0%
- % of Unconverted Compounds of Formula I ([1]; pH 7.4, 4 hr, 100 μg/ml (footnote *)): 82.8%
- % of Unconverted Compounds of Formula I ([1]; pH 7.4, 6 hr, 100 μg/ml (footnote *)): 82.5%
- % of Unconverted Compounds of Formula I ([1]; pH 7.4, 8 hr, 100 μg/ml (footnote *)): 82.4%
- IC50 (NCI H187 cells; [2]): 0.77 nM
- IC50 (NCI H526 cells): 2.06 nM
- IC50 (PANC-1 cells; PANC-1, 96 h): 910 nM
- IC50 (HT-29 cells; HT-29, 96 h): 48.3 nM
- IC50 (NCI H69 cells; NCI-H69, 144 h): 1.3 nM
- IC50 (MDA-MB-231 cells; MDA-MB-231, 96 h): 119 nM
- IC50 (MX-1 cells; MX1, 144 h): 4.6 nM
- IC50 (MDA-MB-468 cells; MDA-MB-468, 96 h): 9.3 nM

SMILES: CCc1c2c(nc3ccc(OC(=O)N4CCC(N5CCCCC5)CC4)cc13)-c1cc3c(c(=O)n1C2)COC(=O)[C@]3(O)CC [Irinotecan HCl trihydrate, reference compound]
- IC50 (NCI H187 cells; NCI-H187, MTT, read-out: IC50 (nM) NCI H187): 385 nM
- IC50 (NCI H526 cells; MTT): 750 nM
- IC50 (PANC-1 cells; PANC-1, 96 hr, MTT): 23000 nM
- IC50 (HT-29 cells; HT-29, 96 hr, MTT): 14000 nM
- IC50 (NCI H69 cells; NCI-H69, 144 hr, MTT): 473 nM
- IC50 (MDA-MB-231 cells; MDA-MB-231, 96 hr, MTT): 21700 nM
- IC50 (MX-1 cells; MX1, MX-1, 144 hr, MTT): 5910 nM
- IC50 (MDA-MB-468 cells; MDA-MB-468, 96 hr, MTT): 4580 nM
